Measurements taken from the supplement of paper PMC10307832.

How the values were obtained:
Assay in all cases: relative viability (nuclei count vs DMSO), 5 days (fraction); higher = more cells survive
BI-D1870 + Phenformin = compound: CC(C)CCN1c2nc(Nc3cc(F)c(O)c(F)c3)ncc2N(C)C(=O)C1C [BI-D1870] + N=C(N)NC(=N)NCCc1ccccc1 [Phenformin] (partner 250 µM)
Outline: (§1)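 Relative viability was taken as the ratio of nuclei in treated wells to nuclei in vehicle wells. Lung cancer cell lines in 1536-well plates received compounds by pin tool one day after seeding, either one drug alone or a fixed anchor-drug dose plus five library-drug doses (not always all listed) in √10 steps. Nuclei were counted on 4× images after 5 days of treatment, and values are medians of duplicate plates.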

Zebularine + Pictilisib = compound: O=c1ncccn1[C@@H]1O[C@H](CO)[C@@H](O)[C@H]1O [Zebularine] + CS(=O)(=O)N1CCN(Cc2cc3nc(-c4cccc5[nH]ncc45)nc(N4CCOCC4)c3s2)CC1 [Pictilisib] (partner 1 µM)
Outline: as §1

Zebularine + Vorinostat = compound: O=c1ncccn1[C@@H]1O[C@H](CO)[C@@H](O)[C@H]1O [Zebularine] + O=C(CCCCCCC(=O)Nc1ccccc1)NO [Vorinostat] (partner 1 µM)
Outline: as §1

Zebularine + Trametinib = compound: O=c1ncccn1[C@@H]1O[C@H](CO)[C@@H](O)[C@H]1O [Zebularine] + CC(=O)Nc1cccc(-n2c(=O)n(C3CC3)c(=O)c3c(Nc4ccc(I)cc4F)n(C)c(=O)c(C)c32)c1 [Trametinib] (partner 0.02 µM)
Outline: as §1

Cell Line	relative viability (BI-D1870 + Phenformin; first compound 0.04 µM)	relative viability (BI-D1870 + Phenformin; first compound 0.1265 µM)	relative viability (BI-D1870 + Phenformin; first compound 0.4 µM)	relative viability (BI-D1870 + Phenformin; first compound 1.265 µM)	relative viability (BI-D1870 + Phenformin; first compound 4 µM)	relative viability (Zebularine + Pictilisib; first compound 1 µM)	relative viability (Zebularine + Pictilisib; first compound 3.162 µM)	relative viability (Zebularine + Pictilisib; first compound 10 µM)	relative viability (Zebularine + Pictilisib; first compound 31.62 µM)	relative viability (Zebularine + Pictilisib; first compound 100 µM)	relative viability (Zebularine + Vorinostat; first compound 1 µM)	relative viability (Zebularine + Vorinostat; first compound 3.162 µM)	relative viability (Zebularine + Vorinostat; first compound 10 µM)	relative viability (Zebularine + Vorinostat; first compound 31.62 µM)	relative viability (Zebularine + Vorinostat; first compound 100 µM)	relative viability (Zebularine + Trametinib; first compound 1 µM)	relative viability (Zebularine + Trametinib; first compound 3.162 µM)	relative viability (Zebularine + Trametinib; first compound 10 µM)	relative viability (Zebularine + Trametinib; first compound 31.62 µM)	relative viability (Zebularine + Trametinib; first compound 100 µM)
EMC-BAC-2	0.578	0.519	0.53	0.549	0.499	0.536	0.562	0.493	0.606	0.546	0.521	0.481	0.495	0.42	0.481	0.97	0.9	0.766	0.901	0.941
EPLC-272H	0.36	0.262	0.289	0.28	0.2	0.342	–	–	0.297	0.273	0.419	0.32	–	0.42	0.178	0.348	–	0.258	0.223	0.352
H3255	0.408	0.323	0.334	0.356	0.367	0.458	0.518	–	0.461	0.457	0.793	0.864	–	0.795	0.75	0.635	0.65	–	0.665	0.599
HARA	0.513	0.455	0.475	0.506	0.402	0.432	0.392	–	0.606	0.35	0.613	0.541	–	0.323	0.213	1.03	0.458	0.48	0.688	0.651
HCC-15	0.56	0.468	0.417	0.426	0.394	0.826	0.424	0.536	0.666	0.249	0.986	0.9	0.665	0.759	0.436	0.375	0.377	0.395	0.392	0.298
HCC-44	0.315	0.211	0.186	0.256	0.232	0.535	0.648	0.375	0.625	0.323	1.15	1.14	1.09	1.19	0.553	1.04	1.11	0.968	1.1	0.668
HCC-78	0.72	0.796	0.795	0.822	0.593	0.223	0.192	0.211	0.254	0.197	0.535	0.462	–	0.444	0.337	0.893	0.742	–	0.794	0.436
HCC-366	0.705	0.587	0.608	0.608	0.573	0.16	0.133	0.119	0.177	0.124	0.488	0.372	0.26	0.343	0.184	0.425	0.402	0.274	0.313	0.0973
HCC-827	0.436	0.38	0.375	0.436	0.366	1.19	0.977	0.835	0.738	0.544	1.04	0.811	0.77	0.478	0.361	0.535	0.574	0.492	0.546	0.404
HOP-62	0.705	0.657	0.719	0.823	0.664	0.579	0.608	0.284	0.287	0.175	0.717	0.474	0.365	0.203	0.22	0.456	0.435	0.282	0.244	0.191
LC-2-ad	0.586	0.657	0.502	0.636	0.54	0.509	0.421	0.399	0.258	0.158	0.759	0.691	0.527	0.644	0.324	0.957	0.979	0.657	0.777	0.356
LCLC-97TM1	0.458	0.472	0.396	0.417	0.453	0.184	0.081	0.138	0.124	0.104	0.529	0.253	0.33	0.157	0.152	0.223	0.209	0.128	0.188	0.174
LCLC-103H	0.376	0.301	0.316	0.36	0.324	0.564	0.603	0.513	0.612	0.553	0.812	0.697	0.706	0.77	0.75	0.727	0.672	0.604	0.675	0.612
LK-2	0.631	0.437	0.451	0.545	0.217	0.617	0.747	0.266	0.383	0.36	0.277	0.315	0.209	0.177	0.28	0.626	0.669	0.476	0.459	0.441
LOU-NH91	0.744	0.63	0.703	0.817	0.558	0.52	0.471	0.498	0.505	0.451	0.981	0.899	0.81	0.9	0.557	0.773	0.814	0.718	0.843	0.65
LU99A	1.05	0.804	0.799	0.634	0.72	0.329	0.305	0.324	0.283	0.198	0.536	0.513	0.414	0.379	0.174	0.604	0.503	0.502	0.329	0.195
LXF-289	0.561	0.493	0.491	0.529	0.451	0.908	0.769	0.792	0.687	0.294	0.853	0.809	0.635	0.667	0.254	0.796	0.731	0.651	0.488	0.296

Cell Line	relative viability (BI-D1870 + Phenformin; first compound 0.04 µM)	relative viability (BI-D1870 + Phenformin; first compound 0.1265 µM)	relative viability (BI-D1870 + Phenformin; first compound 0.4 µM)	relative viability (BI-D1870 + Phenformin; first compound 1.265 µM)	relative viability (BI-D1870 + Phenformin; first compound 4 µM)	relative viability (Zebularine + Pictilisib; first compound 1 µM)	relative viability (Zebularine + Pictilisib; first compound 3.162 µM)	relative viability (Zebularine + Pictilisib; first compound 10 µM)	relative viability (Zebularine + Pictilisib; first compound 31.62 µM)	relative viability (Zebularine + Pictilisib; first compound 100 µM)	relative viability (Zebularine + Vorinostat; first compound 1 µM)	relative viability (Zebularine + Vorinostat; first compound 3.162 µM)	relative viability (Zebularine + Vorinostat; first compound 10 µM)	relative viability (Zebularine + Vorinostat; first compound 31.62 µM)	relative viability (Zebularine + Vorinostat; first compound 100 µM)	relative viability (Zebularine + Trametinib; first compound 1 µM)	relative viability (Zebularine + Trametinib; first compound 3.162 µM)	relative viability (Zebularine + Trametinib; first compound 10 µM)	relative viability (Zebularine + Trametinib; first compound 31.62 µM)	relative viability (Zebularine + Trametinib; first compound 100 µM)
NCI-H23	0.827	0.758	0.768	0.759	0.736	0.536	0.444	–	0.499	0.436	0.661	0.587	–	0.542	0.509	0.486	0.443	–	0.405	0.412
NCI-H322M	0.841	0.764	0.668	0.626	0.701	0.496	0.504	0.439	0.538	0.465	0.946	0.873	1.21	0.945	0.537	0.489	0.515	0.481	0.551	0.509
NCI-H358	0.405	0.289	0.343	0.326	0.218	0.344	0.28	0.395	0.325	0.212	0.837	0.696	0.327	0.358	0.223	0.146	0.134	0.117	0.145	0.113
NCI-H441	1.02	0.832	0.74	1.17	0.872	0.472	0.438	0.291	0.199	0.188	1.03	0.908	0.404	0.317	0.362	0.485	0.416	0.316	0.315	0.213
NCI-H460	0.541	0.48	0.503	0.447	0.0984	0.424	0.316	0.212	0.243	0.166	0.652	0.702	0.297	0.298	0.166	0.24	0.182	0.0901	0.196	0.0781
NCI-H520	0.514	0.596	0.584	0.537	0.429	0.362	0.308	0.204	0.268	0.152	0.752	0.685	0.462	0.45	0.242	0.651	0.698	0.544	0.314	0.229
NCI-H596	0.809	0.683	0.695	0.74	0.855	0.304	0.373	0.361	0.42	0.362	0.628	0.598	0.358	0.577	0.612	0.853	0.904	0.58	0.918	0.774
NCI-H647	0.659	0.466	0.62	0.513	0.324	0.596	0.381	0.222	0.182	0.114	0.481	0.586	0.165	0.165	0.12	0.53	0.508	0.184	0.116	0.112
NCI-H650	0.444	0.446	0.432	0.38	0.322	0.886	0.868	0.445	0.374	0.27	0.398	0.376	0.343	0.297	0.225	0.895	0.97	0.826	0.471	0.262
NCI-H661	0.27	0.28	0.281	0.289	0.269	0.413	0.427	0.328	0.354	0.395	0.9	0.829	0.673	0.936	0.824	0.601	0.596	0.457	0.651	0.639
NCI-H727	0.53	0.614	0.587	0.712	0.462	0.385	0.22	0.529	0.373	0.353	1.18	1.14	0.971	1.26	1.08	0.385	0.35	0.401	0.396	0.444
NCI-H838	0.523	0.503	0.613	0.595	0.518	0.463	0.457	0.422	0.51	0.303	0.712	0.723	0.654	0.859	0.402	0.58	0.537	0.415	0.437	0.231
NCI-H1355	0.494	0.418	0.44	0.46	0.38	0.45	0.272	0.371	0.426	0.254	0.692	0.585	0.479	0.544	0.372	0.449	0.45	0.468	0.383	0.335
NCI-H1395	0.451	0.418	0.464	0.456	0.427	0.681	0.568	0.493	0.606	0.42	0.7	0.753	0.661	0.655	0.515	1.15	1.05	0.966	0.767	0.62
NCI-H1437	0.279	0.255	0.309	0.332	0.27	0.559	0.453	–	0.451	0.287	1.02	0.899	0.727	0.911	0.55	0.545	0.532	0.419	0.619	0.661
NCI-H1650	0.368	0.362	0.358	0.414	0.304	0.72	0.447	–	0.839	0.488	0.645	0.57	0.506	0.748	0.373	0.674	0.597	0.399	0.9	0.488
